# Assay results published in US10357474B2, “Preparation and use of a composition for prevention and mitigation of the effects of radiation” (BioVentures, LLC, priority 2013, dated 2019).
# Experiments:
# [1] = tested on: H9c2 heart cardiomyocytes; test: Cellular bioenergetics measurements (oxygen consumption rate, XF96 Seahorse); format: cell-based, rat; details: for Effect of H2O2 treatment on OCR after pre-treatment: 5 μM overnight pre-treatment
# Description: H9C2 heart cardiomyocytes were treated with 5 μM DT3 or 5 μM DG-3 or vehicle control (DMSO) overnight. Oxygen Consumption Rates (OCR) were measured and cellular bioenergetics profiles were determined using XF96 Seahorse Extracellular Flux Analyzer.
# FIG. 6 is a graph showing the effects of hydrogen peroxide on the OCR of cardiomyocytes after the indicated treatments. H9C2 heart cardiomyocytes were exposed to 50 or 100 μM H2O2 for 4 h. Oxygen Consumption Rates (OCR) were measured and cellular bioenergetics profiles were determined using XF96 Seahorse Extracellular Flux Analyzer.
# (§1) FIG. 7 is a graph showing the effects of 50 μM hydrogen peroxide on the OCR of cardiomyocytes after the indicated pre-treatment with DMSO (dimethylsulfoxide vehicle), DT3 or DG-3. Cellular bioenergetic profiles were determined using XF96 Seahorse Extracellular Flux Analyzer.
# FIG. 8 is a graph showing the effects of 100 μM hydrogen peroxide on the OCR of cardiomyocytes after the indicated pre-treatment with DMSO (dimethylsulfoxide vehicle), DT3 or DG-3. Cellular bioenergetic profiles were determined using XF96 Seahorse Extracellular Flux Analyzer.
# as §1, with “9” for “7”, “6 Gy ionizing radiation” for “50 μM hydrogen peroxide”, “vehicle).” for “vehicle),”, “Analyzer 1 h following radiation exposure.” for “Analyzer.”
# Cellular oxygen consumption rates (OCR) were measured at 37° C. using an XF96 extracellular analyzer (Seahorse Bioscience) as previously described (Ferrick D A, Neilson A, and Beeson C. Advances in measuring cellular bioenergetics using extracellular flux. Drug Discov Today 2008; 13: 268-274). Briefly, 10,000 H9C2 cells per well were plated. The cells were treated with 5 μM DT3 or 5 μM DG-3 or vehicle control (DMSO) overnight. Cells were then exposed to 0, 50 or 100 μM H2O2 for 4 h or 6 Gy ionizing radiation (IR). The media in the wells were changed to unbuffered Dulbecco's Modified Eagle Medium (DMEM) supplemented with 4 mM […] and incubated in a non-CO2 incubator for 1 h at 37° C. Three baseline measurements were acquired before injection of mitochondrial inhibitors or uncouplers. Readings were taken after sequential addition of oligomycin (10 μM), FCCP (10 μM), and rotenone/antimycin A (10 μM). OCR was calculated by the Seahorse XF96 software and represents an average of 12-16 measurements.
# [2] = tested on: H9C2 rat heart cardiomyocyte cells; test: Total antioxidant capacity (copper reducing equivalents) of cardiomyocytes; format: cell-based; details: 5 μM treatment
# Description: (§2) DG-3, provided herein, is a standardized extract derived from annatto seeds that contains only […] and GT3. Because radiation-induced mitochondrial damage and oxidative stress impacts several critical biologic parameters such as DNA damage repair and stem cell fate, in this research we have compared the effects of DT3, GT3, and DG-3 against radiation induced mitochondrial dysfunction and oxidative stress. […] Furthermore, the same treatment preserved the cell viability and mitochondrial respiration in these cells when followed by oxidative insult via H2O2 treatment. Methods of making DG-3 and methods of using these compositions are provided herein.
# [3] = tested on: H9c2 heart cardiomyocytes; test: Morphology assay of cardiomyocytes exposed to H2O2; format: cell-based, rat
# Description: FIG. 3 is a set of photographs showing the cardiomyocytes after the indicated treatments. H9C2 heart cardiomyocytes were treated with 5 μM DT3 or 5 μM DG-3 or vehicle control (DMSO) overnight. Cells were then exposed to H2O2 for 4 h. Morphological changes were recorded under an inverted microscope.
# as §2
# H9c2 heart cardiomyocytes were treated with 5 μM DT3 or 5 μM DG-3 or vehicle control (DMSO) overnight. Cells were then exposed to 100 or 200 μM H2O2 for 4 h. Morphological changes were recorded under an inverted microscope.
# [4] = tested on: Wistar rat liver microsomes; test: Inhibition of TBHP induced lipid peroxidation in rat liver microsomes; format: biochemical; details: rat liver microsomes 1 mg/ml, 1 h pre-incubation at 37° C., 200 μM TBHP for 30 min; read-out: IC50 inhibition of lipid peroxidation (antioxidant potential)
# Description: Data are means±SEM of triplicate experiments. One of the most well-known properties of the vitamin E components is their ability to prevent lipid peroxidation. See Traber et al. (2011) Free Radic Biol Med 51(5):1000-1013. Briefly, the antioxidant activity of DG-3 was evaluated in rat liver microsomes by measuring inhibition of lipid peroxidation after TBHP ([…]) treatment. Wistar rat liver microsomes (BD Biosciences) were diluted in phosphate buffer, 0.1 M (pH 7.4), at the final protein concentration of 1 mg/ml. The microsomes were treated with different concentrations of DG-3 or DT3 (diluted with DMSO) and incubated at 37° C. for 1 hour before inducing lipid peroxidation with 200 μM TBHP (DMSO) for 30 min.
# [5] = 5 μM treatment followed by H2O2 treatment
smiles,measurement,setting,value
"CC(C)=CCC/C(C)=C/CC/C(C)=C/CC[C@]1(C)CCc2cc(O)cc(C)c2O1 [DT3, δ-tocotrienol]",Effect of H2O2 treatment on OCR after pre-treatment,[1]; 50 μM H2O2 for 4 h (FIG. 7),eliminated
same,Effect of H2O2 treatment on OCR after pre-treatment,[1]; 100 μM H2O2 for 4 h (FIG. 8),significantly reduced
same,Oxygen consumption rate (OCR) compared to controls,"[1]; 5 μM overnight, no H2O2 (FIG. 5)",modestly improved
same,Mitochondrial respiration after oxidative insult via H2O2,[1]; [5],preserved
same,Total antioxidant capacity (copper reducing equivalents),[2],did not change
same,Morphological changes (cell damage) after H2O2,"[3]; 5 μM overnight pre-treatment, then 100 μM H2O2 for 4 h",damage is limited
same,Morphological changes (cell monolayer) after H2O2,"[3]; 5 μM overnight pre-treatment, then 200 μM H2O2 for 4 h",still maintain a monolayer with only a few rounded cells
same,Cell viability after oxidative insult via H2O2,[3]; [5],preserved
same,IC50,[4],2580 nM
